Results taken from patent US7250269B2, “Composition for assaying glycoprotein” (Asahi Kasei Pharma Corporation, priority 2001, dated 2007).
Read-outs that look alike come from different tables or passages of the source.

Tests used:
Protease type-XXIV [1] = assay type: biochemical, Bacillus
Method: 5 g/dl HSA (LOT38H7601; manufactured by Sigma-Aldrich Co.)
(§1) 8 μl of a sample was added to 240 μl of the proteolytic reagent incubated at 37° C. […] A relative sensitivity for the experiment using the reagent containing a stabilizer to the experiment using the reagent not containing a stabilizer was calculated assuming that ΔA0obtained using the reagent not containing a stabilizer and used without storing is 100%.

[2] = system: heat-stable type ascorbic acid oxidase (ASO-312); experiment: Effect of buffer agent types on stabilization of ascorbic acid oxidase ASO-312 in the presence of protease; assay type: biochemical; settings: pH 8.0, stored two days at room temperature
Method: 1 ml of the above mixed reaction reagent is placed in a small test tube and preheated at 30° C. for five minutes, then 0.10 ml of an appropriately diluted enzyme solution is added. The mixture is stirred to initiate the reaction. After the reaction for exactly 5 minutes, 3.0 ml of 0.2 N hydrochloric acid aqueous solution is added to terminate the reaction. Absorbance (As) at a wavelength of 245 nm is measured. For the blank test, 1 ml of the above reaction solution is placed in a small test tube and preheated at 30° C. for five minutes, then 3.0 ml of 0.2 N hydrochloric acid aqueous solution is added to terminate the reaction. 0.10 ml of an appropriately diluted enzyme solution is added and the mixture is stirred to measure the absorbance (Ab) at a wavelength of 245 nm. The enzyme activity is determined from the difference (Ab-As) between the absorbance (As) after the enzyme reaction and the blank test absorbance (Ab). The amount of enzyme oxidizing 1 μmol of ascorbic acid into dehydroascorbic acid in one minute at 30° C. is defined as 1 U. The calculation formula is shown below. Activity (U/ml)=[(Ab−As)/10.0]×[⅕]×[4.10/0.10]×[1/B] • 10.0: Molecular absorbance coefficient (mM) of ascorbic acid at 245 nm under the conditions of pH 1.0. • 5: Reaction time (min) • 4.10: Total reaction solution (ml) • 0.10: Amount of enzyme sample solution used for the reaction • B: Dilution magnification of the enzyme solution
The above reaction solutions were prepared using various buffer agents. A portion of each solution was used as a control after measuring the ascorbic acid oxidase activity. The above-described <<Method for Measuring the Activity of Ascorbic Acid Oxidase (ASOx)>> was employed for the activity measurement. The remaining portion of reaction solutions was stored for two days at room temperature, and the activity was measured in the same manner. The ratio of the activity after storage for two days at room temperature to the activity of the control was calculated to compare the stability of ascorbic acid oxidases.

[3] = biological target: T1, Ascorbic acid oxidase (ASO-311) (Cucurbita maxima, UniProt P24792); settings: pH 8.0, stored two days at room temperature
T1 sequence (P24792 31-579): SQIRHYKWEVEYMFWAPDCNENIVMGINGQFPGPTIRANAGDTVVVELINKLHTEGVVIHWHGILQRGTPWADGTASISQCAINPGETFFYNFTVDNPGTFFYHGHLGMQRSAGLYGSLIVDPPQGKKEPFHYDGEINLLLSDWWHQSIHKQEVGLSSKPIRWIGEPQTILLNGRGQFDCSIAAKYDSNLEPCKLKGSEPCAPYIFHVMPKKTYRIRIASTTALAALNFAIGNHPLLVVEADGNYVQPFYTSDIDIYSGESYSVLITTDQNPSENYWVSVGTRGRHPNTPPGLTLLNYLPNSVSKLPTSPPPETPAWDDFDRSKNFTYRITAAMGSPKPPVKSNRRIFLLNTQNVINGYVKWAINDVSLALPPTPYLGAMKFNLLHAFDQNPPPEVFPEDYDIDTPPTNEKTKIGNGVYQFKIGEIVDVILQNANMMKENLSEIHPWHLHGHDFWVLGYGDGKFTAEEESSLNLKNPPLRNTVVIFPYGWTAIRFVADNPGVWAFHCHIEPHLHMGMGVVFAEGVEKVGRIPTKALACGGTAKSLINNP

Ascorbic acid oxidase = biological target: T2, Ascorbic acid oxidase (Cucurbita maxima, UniProt P24792); settings: R-1 stored 24 hours at room temperature; FIG. 4
T2 sequence (P24792 31-579): T1 sequence (P24792 31-579)
Method: An ascorbic acid-addition substrate solution was prepared by adding one volume of ascorbic acid (1 g/dl) (manufactured by Kokusan Chemical Co., Ltd.) to nine volume of human pool blood serum. A solution prepared by adding distilled water instead of ascorbic acid was used as a control substrate solution.
8 μl of the control substrate solution or ascorbic acid-addition substrate solution was added to 240 μl of R-1 incubated at 37° C. The reaction was initiated at 37° C. and exactly 5 minutes thereafter 80 μl of R-2 was added. Absorbance at 555 nm was measured before the addition of R-2 and five minutes after the addition of R-2. ΔA0 was calculated by subtracting the absorbance change obtained from a blank sample using distilled water instead of the substrate solution from the absorbance change obtained from the absorbance measurement on the control substrate solution and ascorbic acid-addition substrate solution. The same reaction solution R-1 was stored at room temperature for 24 hours, and the absorbance was measured in the same manner to calculate ΔA24. The ratio of ΔA0 and ΔA24 obtained from the ascorbic acid-addition substrate solution was calculated assuming the absorbance change obtained from the control substrate solution as 100.

Protease type-XXIV [4] = experiment: Screening of globulin component-selective protease inhibitors (HSA substrate with/without γ-globulin); assay type: biochemical, Bacillus; settings: additive concentration 1.0%; control 23.8
Text: Using protease type-XXIV (manufactured by Sigma-Aldrich Co.) having high reactivity with the HSA substrate solution, components that decrease the protease reaction with the above globulin substrate solutions were screened based on the HSA substrate solution.
In the R-1 proteolytic reagent, as the deoxycholic acid amide, bisgluconamidopropyldeoxycholamide was used; as the cholic acid amide, 3-[(3-cholamidopropyl)dimethvlammonio]propane sulfonic acid, 3-[(3-cholamidopropyl)dimethylammonio]-2-hydroxypropane sulfonic acid, or bisgluconamidopropylcholamide was used; as the quaternary ammonium salt, benzyltriethylan chloride or benzyltri-n-butylammonium chloride was used; and as quatemary ammonium salt-type cationic surfactant, lauryltrimethylammonium chloride or lauryldimethylamine oxide was used.
• 1. HSA substrate solution: Albumin Human: 40 mg/ml, GA %=10.5% [manufactured by Wako Pure Chemical Industries, Ltd., the albumin concentration in the substrate solution was assayed using an albumin assay kit (albumin II-HA Test Wako; manufactured by Wako Pure Chemical Industries, Ltd.). GA % was assayed using a glycated albumin analyzer (GAA-2000, manufactured by ARKRAY, Inc.). • 2. γ-globulin addition substrate solution, 17.0 mg/ml of γ-globulin [γ-Globulins Human (manufactured by Sigma-Aldrich Co.), Fructosamine value=34 μM] was added to the above HSA substrate solution. <Reaction Procedure>
Absorbances at a wavelength of 546 nm were measured before and after the addition of R-2. The difference of the two measurements was regarded as the absorbance change. The same procedure was conducted using distilled water instead of the substrate to prepare a blank sample. In addition, a reaction solution without the addition of the globulin-selective protease inhibitor was used as a control.
ΔA (HSA) was calculated by subtracting the absorbance change of the blank sample from the absorbance change obtained for the HSA substrate solution. ΔA(+γ-globulin) was calculated by subtracting the absorbance change of the blank sample from the absorbance change obtained for the substrate solution to which γ-globulin was added. Effect of γ-globulin addition=(ΔA(+γ-globulin)−ΔA(HSA))/ΔA(HSA)×100(%)

R-FOD-II = experiment: Stabilization of enzyme reacting at least with glycated amino acid; assay type: biochemical; settings: stored at 37° C. for two days; without stabilizer 30%; FIG. 6
Method: as §1, with “ΔA0 obtained” for “ΔA0obtained”

[5] = stored at 37° C. for 24 hours, without stabilizer 60%, FIG. 5

## Triethanolamine lauryl sulfate [TEALS]
Protease type-XXIV [1]; [5]
  stabilization effect on proteolytic reagent (relative sensitivity): stabilization effect

## [Cl-].[Na+] [sodium chloride, Sodium chloride]
Protease type-XXIV [1]; [5]
  stabilization effect on proteolytic reagent (relative sensitivity): stabilization effect

## O=P(O)(O)O [Phosphoric acid, phosphoric acid]
[2]; Pronase
  Relative activity (%) ASO-312: 108%
[2]; Protease type XXIV
  Relative activity (%) ASO-312: 86%
[3]; Pronase
  Relative activity (%) ASO-311: 88%
[3]; Protease type XXIV
  Relative activity (%) ASO-311: 77%

## O=S(=O)(O)CC(O)CN1CCN(CC(O)CS(=O)(=O)O)CC1 (centres unmarked) [POPSO]
[2]; Pronase
  Relative activity (%) ASO-312: 80%
[2]; Protease type XXIV
  Relative activity (%) ASO-312: 56%
[3]; Pronase
  Relative activity (%) ASO-311: 80%
[3]; Protease type XXIV
  Relative activity (%) ASO-311: 62%
Ascorbic acid oxidase
  ascorbic acid eliminating capability after storing: no change

## O=S(=O)(O)CCCN1CCN(CCO)CC1 [EPPS]
[2]; Pronase
  Relative activity (%) ASO-312: 31%
[2]; Protease type XXIV
  Relative activity (%) ASO-312: 30%
[3]; Pronase
  Relative activity (%) ASO-311: 13%
[3]; Protease type XXIV
  Relative activity (%) ASO-311: 35%
Ascorbic acid oxidase
  ascorbic acid eliminating capability after storing: almost no ascorbic acid eliminating capability

## O=S(=O)(O)CC(O)CN1CCN(CCO)CC1 (centres unmarked) [HEPPSO]
[2]; Pronase
  Relative activity (%) ASO-312: 34%
[2]; Protease type XXIV
  Relative activity (%) ASO-312: 22%
[3]; Pronase
  Relative activity (%) ASO-311: 14%
[3]; Protease type XXIV
  Relative activity (%) ASO-311: 37%
Ascorbic acid oxidase
  ascorbic acid eliminating capability after storing: almost no ascorbic acid eliminating capability

## CCO [EtOH, Ethanol]
Protease type-XXIV [1]
  stabilization effect on proteolytic reagent (relative sensitivity): stabilization effect

## CCCCCCCCO[C@@H]1O[C@H](CO)[C@@H](O)[C@H](O)[C@H]1O [Octylglucoside]
Protease type-XXIV [4]
  Effect of γ-globulin (%): 18.5%

## C[N+](C)(C)Cc1ccccc1.[Cl-] [Benzyltrimethylammonium chloride]
Protease type-XXIV [4]
  Effect of γ-globulin (%): 23.2%

## Alkylbenzyldimethylammonium chloride
Protease type-XXIV [4]
  Effect of γ-globulin (%): 23.2%

## CCCCCCCCCCCC[N+](C)(C)[O-] [Lauryldimethylamine oxide]
Protease type-XXIV [4]
  Effect of γ-globulin (%): 17.8%

## trishydroxymethylaminomethane
[2]; Pronase
  Relative activity (%) ASO-312: 62%
[2]; Protease type XXIV
  Relative activity (%) ASO-312: 44%
[3]; Pronase
  Relative activity (%) ASO-311: 55%
[3]; Protease type XXIV
  Relative activity (%) ASO-311: 52%
Ascorbic acid oxidase
  ascorbic acid eliminating capability after storing: no change

## C[S+](C)[O-] [DMSO, Dimethylsulfoxide]
Protease type-XXIV [1]; storage for 4 weeks at 37° C.
  decrease in performance of proteolytic reagent: almost no decrease in performance
Protease type-XXIV [1]; stored at 37° C. for 24 hours, FIG. 5
  decrease in performance of proteolytic reagent: almost no decrease in performance
Protease type-XXIV [1]; [5]
  stabilization effect on proteolytic reagent (relative sensitivity): stabilization effect
Protease type-XXIV [1]; stored in a liquid state in a refrigerator
  storage stability effect: one year or more

## C[N+](C)(C)Cc1ccccc1.[Br-] [Benzyltrimethylammonium bromide]
Protease type-XXIV [4]
  Effect of γ-globulin (%): 23.1%

## [Ca+2].[Cl-].[Cl-] [calcium chloride, Calcium chloride]
R-FOD-II
  stabilization effect on glycated amino acid assay reagent (relative sensitivity): stabilization effect
Protease type-XXIV [1]
  decrease in performance of proteolytic reagent: almost no decrease in performance
  stabilization effect on proteolytic reagent (relative sensitivity): stabilization effect
  storage stability effect: one year or more

## C[C@H](CCC(=O)NCCC[N+](C)(C)CCCS(=O)(=O)[O-])[C@H]1CC[C@H]2[C@@H]3[C@H](O)C[C@@H]4C[C@H](O)CC[C@]4(C)[C@H]3C[C@H](O)[C@]12C [3-[(3-cholamidopropyl)dimethylammonio]propane sulfonic acid]
Protease type-XXIV [4]
  Effect of γ-globulin (%): 17.9%
